Results taken from patent US20100160369A1, “S1P1 Agonists and Methods of Making And Using” (EXELIXIS, INC., priority 2008, published 2010).

Tests used:
hS1P1R (hEdg1) = molecular target: T1, hS1P1R (hEdg1) (Homo sapiens, UniProt P21453); test: hS1P1R GTPγS Binding Assay (Assay 3a); format: biochemical
T1 construct: purchased Lonza
Procedure, shortened: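 Human S1P1 receptor membranes (4 μg) incubated 1 h at room temperature with 30 μM GDP, 0.1 nM [35S]GTPγS, 0.25% fatty-acid-free BSA and serially diluted agonist in pH 7.9 Tris buffer with Mg2+ and EGTA. Bound radioactivity read by WGA SPA after a further 1 h; EC50 reported unless noted.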

S1P1 = S1P1 (Homo sapiens, UniProt P21453); test: DELFIA GTP-Eu Binding Assay (Assay 3b); format: biochemical; parameters: purchased Lonza; host or cells: CHO cell membranes; details: read-out: Assay 3b EC50
Description: The DELFIA GTP-Eu binding assay (PerkinElmer) is a time-resolved fluorometric assay based on GDP-GTP exchange. CHO cell membranes (Lonza) expressing human S1P1 were incubated in 96-well filter plates (Pall, East Hills, N.Y.) in a final volume of 100 μL/well buffer containing 40 μg/mL membrane, 50 mM HEPES, 2 μM GDP, 10 mM MgCl2, 100 mM NaCl, 500 μg/mL Saponin and test compound. Test compounds were tested at maximum concentrations of 10 μM. Compounds were diluted (10 concentration points, 3-fold each) and added to the assay plate at a 1% final DMSO concentration. For each compound, there were duplicate assay plates and each assay plate had duplicate wells per concentration point. The plates were incubated for 30 min at room temperature on a plate shaker at low speed. GTP-Eu was added to each well (10 μL, 10 nM final concentration) and the plate was incubated for an additional 30 min with slow shaking The wells were washed with ice cold GTP washing buffer (3×150 μL) using a vacuum manifold and the assay plates read in an EnVision plate reader (PerkinElmer) at an excitation wavelength of 340 nm and an emission wavelength of 615 nm. To determine agonist activity, percent activity was calculated as [(test compound−background)/(positive control−background)*100], where background is the fluorescence in absence of compound and the positive control is the fluorescence from membranes incubated with 1 μM S1P (Avanti). The percent activities were plotted against compound concentration to determine IC50 or EC50 using XLFit (IDBS).
Assay 1 is the CNG cAMP Assay as described in Biological Example 1. Assay 2a and 2b are the Tango™ β-arrestin Recruitment Assay in HEK293 and U2OS cells, respectively, as described in Biological Example 2. Assay 3a is the hS1P1R GTPγS Binding Assay as described in Biological Example 3. Assay 3b is the GTP-Eu Binding Assay as described in Biological Example 3. EC50's were measured unless otherwise noted. […] In the table, “nt” means the Compound was not tested and “no” means the compound was tested but had no measurable activity under the assay conditions employed.

S1P1, sequence (P21453 whole entry): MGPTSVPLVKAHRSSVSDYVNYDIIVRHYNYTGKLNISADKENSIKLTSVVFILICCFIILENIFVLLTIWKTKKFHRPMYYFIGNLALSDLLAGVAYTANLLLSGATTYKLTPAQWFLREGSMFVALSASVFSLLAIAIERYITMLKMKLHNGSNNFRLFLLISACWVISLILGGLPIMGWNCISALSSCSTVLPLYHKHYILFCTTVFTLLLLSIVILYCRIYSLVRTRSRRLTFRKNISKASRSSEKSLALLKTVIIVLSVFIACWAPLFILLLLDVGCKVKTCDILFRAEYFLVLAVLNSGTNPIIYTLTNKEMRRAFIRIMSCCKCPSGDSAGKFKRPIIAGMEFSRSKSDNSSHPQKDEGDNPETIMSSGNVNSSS
T1 sequence (P21453 whole entry): as above

SMILES | EC50 (hS1P1R (hEdg1)) [nM] | EC50 (S1P1) [nM]
O=C(O)CCc1cc(Cl)c(-c2noc(-c3cn4cc(C(F)(F)F)cc(Cl)c4n3)n2)cc1F [Entry 24] | ≤ 100 | ≤ 100
O=C(O)CCc1cc(Cl)c(-c2noc(-c3cn4cc(C(F)(F)F)cc(Br)c4n3)n2)cc1F [Entry 49] | ≤ 100 | 100 to 500
Cc1cc(CCC(=O)O)c(Cl)cc1-c1noc(-c2cn3cc(C(F)(F)F)cc(Cl)c3n2)n1 [Entry 56] | ≤ 100 | ≤ 100
C[C@H](CO)Oc1cc(Cl)c(-c2noc(-c3cn4cc(C(F)(F)F)cc(Cl)c4n3)n2)cc1F [Example 93, (2R)-2-[(5-chloro-4-{5-[8-chloro-6-(trifluoromethyl)imidazo[1,2-a]pyridin-2-yl]-1,2,4-oxadiazol-3-yl}-2-fluorophenyl)oxy]propan-1-ol] | ≤ 100 | ≤ 100
O=C(O)CCc1cc(Cl)c(-c2nnc(-c3cn4cc(C(F)(F)F)cc(Cl)c4n3)s2)cc1F [Example 176, 3-(5-chloro-4-{5-[8-chloro-6-(trifluoromethyl)imidazo[1,2-a]pyridin-2-yl]-1,3,4-thiadiazol-2-yl}-2-fluorophenyl)propanoic acid] | ≤ 100 | ≤ 100
O=C(O)CCc1cc(Cl)c(-c2nnc(-c3cn4cc(C(F)(F)F)cc(Br)c4n3)s2)cc1F [Example 177, 3-(4-{5-[8-bromo-6-(trifluoromethyl)imidazo[1,2-a]pyridin-2-yl]-1,3,4-thiadiazol-2-yl}-5-chloro-2-fluorophenyl)propanoic acid] | ≤ 100 | ≤ 100
OCC(O)COc1cc(Cl)c(-c2noc(-c3cn4cc(C(F)(F)F)cc(Cl)c4n3)n2)cc1Cl (stereo not drawn) [Example 208, 3-[(2,5-dichloro-4-{5-[8-chloro-6-(trifluoromethyl)imidazo[1,2-a]pyridin-2-yl]-1,2,4-oxadiazol-3-yl}phenyl)oxy]propane-1,2-diol] | ≤ 100 | 100 to 500
O=C(O)CCc1cc(Cl)c(-c2nc(-c3cn4cc(C(F)(F)F)cc(Cl)c4n3)no2)cc1F [Example 233, 3-(5-chloro-4-{3-[8-chloro-6-(trifluoromethyl)imidazo[1,2-a]pyridin-2-yl]-1,2,4-oxadiazol-5-yl}-2-fluorophenyl)propanoic acid] | 100 to 500 | 100 to 500
O=C(O)CCc1cc(Cl)c(-c2noc(-c3cn4cc(C(F)(F)F)cc(Cl)c4n3)n2)cc1Cl [Example 242, 3-(2,5-dichloro-4-{5-[8-chloro-6-(trifluoromethyl)imidazo[1,2-a]pyridin-2-yl]-1,2,4-oxadiazol-3-yl}phenyl)propanoic acid] | ≤ 100 | ≤ 100
OCCOc1cc(Cl)c(-c2noc(-c3cn4cc(C(F)(F)F)cc(Cl)c4n3)n2)cc1F [Example 263, 2-[(5-chloro-4-{5-[8-chloro-6-(trifluoromethyl)imidazo[1,2-a]pyridin-2-yl]-1,2,4-oxadiazol-3-yl}-2-fluorophenyl)oxy]ethanol] | ≤ 100 | 100 to 500
CC(C)Oc1cc(Cl)c2nc(-c3nc(-c4cc(F)c(CCC(=O)O)cc4Cl)no3)cn2c1 [Example 301, 3-[5-chloro-4-(5-{8-chloro-6-[(1-methylethyl)oxy]imidazo[1,2-a]pyridin-2-yl}-1,2,4-oxadiazol-3-yl)-2-fluorophenyl]propanoic acid] | 100 to 500 | ≤ 100
O=C(O)CCc1cc(Cl)c(-c2noc(-c3cn4cc(I)cc(Cl)c4n3)n2)cc1F [Example 302, 3-{5-chloro-4-[5-(8-chloro-6-iodoimidazo[1,2-a]pyridin-2-yl)-1,2,4-oxadiazol-3-yl]-2-fluorophenyl}propanoic acid] | 100 to 500 | ≤ 100
